Key:
[1] = system: SSX2 mouse sarcoma cell line; assay: Cancer cell growth in vitro (images after three days); type: cell-based; details: 200 nM BEZ235; three days after plating; 100,000 cells per flask
Description: An SSX2 mouse sarcoma cell line (described in Rekoske et al., Cancer Immunol Res August 2015 3; 946) was split and 100,000 cells plated into each of two […] flasks. Cells were grown in RPMI-1640, 5% FCS, 200 U/mL Pen/Strep, 50 μM β-MeOH with or without 200 nM BEZ235 PI3-Kinase inhibitor. FIG. 2 left, mouse sarcoma cell line grown in normal media three days after plating; shown at […] and 10× and right, sarcoma cells from the same split plated with the same number of cells/cm^2 and grown in media containing the pan-PI3K inhibitor BEZ235.

[2] = system: activated (CD137+) CD8+ T cells; assay: In vitro stimulation of splenocytes, surface expression of LAG-3 and PD1 by flow cytometry; type: cell-based, mouse; details: 200nM BEZ235; WT (CD3/28 beads) or OT1 (SIINFEKL peptide) splenocytes; 24 h
Description: FIG. 1A depicts WT (top) and OT1 (bottom) splenocytes stimulated with either CD3/28 beads or SIINFEKL peptide respectively, with/without PI3K inhibition and assayed for surface expression of LAG-3 (left graphs) or PD1 (right graphs) on activated (CD137+) CD8+ T cells at 24 h. FIG. 1B depicts a representative OT1 sample showing levels of LAG-3 and PD1 on CD8+ T cells upon in vitro SIINFEKL stimulation in the presence of a PI3K inhibitor. (* denotes a p-value <0.05, two way Mann-Whitney test) FIG. 1C depicts WT splenocytes stimulated with CD3/28 beads with/without PI3K inhibition and assayed for intracellular expression of cytokines in CD8+ T cells.
Splenocytes from either OT-1 or wild type (WT) C57BL/6J mice were cultured in RPMI-1640, 10% FCS, 200U/mL Pen/Strep, 1% NaPyr, 1% HEPES, 50 μM β-MeOH and 2 μg/mL SIINFEKL peptide (OT1 cells) or CD3 and CD28 antibody coated latex beads (WT cells) with or without 200nM BEZ235 PI3-Kinase inhibitor (Selleckchem, Catalog No. S1009).
(* denotes a p-value <0.05, two way Mann-Whitney test).

## Cn1c(=O)n(-c2ccc(C(C)(C)C#N)cc2)c2c3cc(-c4cnc5ccccc5c4)ccc3ncc21 [BEZ235]
[1]
  cell growth: inhibited cell growth
[2]
  surface expression of LAG-3 on CD8+ T cells: increased expression of LAG-3
  surface expression of PD-1 on CD8+ T cells: reduced expression of PD-1

From patent US20180043011A1, “PI3-Kinase Inhibition and LAG-3 Checkpoint blockade as a Combination Therapy for Cancer” (Wisconsin Alumni Research Foundation, priority 2016, published 2018)
